Among the data in patent US8476287B2, “3-hydroxy-5-arylisothiazole derivative” (Mochida Pharmaceutical Co., Ltd., priority 2009, dated 2013) are EC50 values, retold here.

pEC50: −log10 of the molar value.

The target in the assay is T1, GPR40 of human origin (Homo sapiens, UniProt O14842).
T1 construct: expressed in transfected cells
T1 sequence (O14842 whole entry): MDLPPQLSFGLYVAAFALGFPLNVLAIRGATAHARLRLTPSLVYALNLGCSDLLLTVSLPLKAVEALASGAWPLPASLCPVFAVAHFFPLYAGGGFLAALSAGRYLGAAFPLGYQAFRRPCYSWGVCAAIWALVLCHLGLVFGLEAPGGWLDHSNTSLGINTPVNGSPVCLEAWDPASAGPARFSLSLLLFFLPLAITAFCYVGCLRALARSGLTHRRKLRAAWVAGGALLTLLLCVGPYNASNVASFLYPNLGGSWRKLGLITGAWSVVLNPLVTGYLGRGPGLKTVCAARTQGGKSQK
Put plainly: Agonist action on GPR40 of human origin (Ca2+ fluorescence in CHO cells). The following applies: CHO cell strain stably expressing GPR40 of human origin; Ca2+ concentration fluctuation, fluorescent calcium indicator. The assay is classed as cell-based. The protocol:
A CHO cell strain stably expressing GPR40 of human origin was used to determine the agonist action of a subject compound. This cell strain was seeded in a clear bottom 96 well plate at 4×10^4 cells/100 μL/well. The cell strain was cultured in a CO2 incubator overnight using a Ham's F-12 medium containing a 10% fetal bovine serum, 100 U/mL penicillin, 0.1 mg/mL streptomycin, and 400 μg/mL Geneticin. Calcium 4 Assay Kit (Molecular Devices) was used as a fluorescent calcium indicator. One mL of 77 mg/mL probenecid (Invitrogen) was added to 100 mL of a calcium indicator solution to prepare a solution (loading solution) mixed with a 20 mM HEPES-containing Hanks' balanced salt solution (HBSS) in equal proportions. 200 μL of the loading solution was added to the cells from which the culture solution was removed, and the cells were cultured in a CO2 incubator for 1 hour. The subject compound was diluted with a 20 mM HEPES-containing HBSS and was added to the cells by 50 μL, and the fluctuation of the Ca^2+ concentration was measured by an intracellular ion analyzer. The EC50 value of the subject compound was calculated using the dose-response curve of fluorescence intensity variation.
A word on the pEC50: it is −log10 of the EC50, conventionally taken in molar units. For the compound `CCOCCOc1cc(C)c(-c2cccc3c2CC[C@H]3Oc2ccc(-c3cc(O)n[s+]3[O-])cc2)c(C)c1` (single isomer, unassigned) [Example 139], the pEC50 was > 6.52.

In the case of `[O-][s+]1nc(O)cc1-c1ccc(OC2CCc3c(OCc4ccccc4)cccc32)cc1` (centres unmarked) [Example 129, 5-[4-[(4-phenylmethoxy-2,3-dihydro-1H-inden-1-yl)oxy]phenyl]isothiazol-3-ol 1-oxide(A)], the negative-log EC50 (pEC50) was > 6.52.

For `Cc1cc(OCCCNS(C)(=O)=O)cc(C)c1-c1cccc(COc2ccc(-c3cc(O)n[s+]3[O-])cc2)c1` (centres unmarked) [Example 72, N-[3-[4-[3-[[4-(3-hydroxy-1-oxo-isothiazol-5-yl)phenoxy]methyl]phenyl]-3,5-dimethylphenoxy]propyl]methanesulfonamide(A)], the pEC50 was > 6.52.

As for `[O-][s+]1nc(O)cc1-c1ccc(O[C@@H]2CCc3c(-c4ccc(N5CCCCC5)nc4)cccc32)cc1` (single isomer, unassigned) [Example 118], the negative logarithm of the EC50 (pEC50) is > 6.52.

As to `CCOCCOc1cc(C)c(-c2cccc(COc3ccc(-c4cc(O)n[s+]4[O-])cc3)c2)c(C)n1` (centres unmarked) [Example 19, 5-(4-((3-(2,4-dimethyl-6-(2-ethoxyethoxy)pyridin-3-yl)phenyl)methoxy)phenyl)isothiazol-3-ol 1-oxide(A)], the pEC50 was > 6.52.

For the compound `Cc1cccc(C)c1-c1cccc2c1CC[C@H]2Oc1ccc(-c2cc(O)n[s+]2[O-])cc1` (single isomer, unassigned) [Example 107], the negative-log EC50 (pEC50) was > 6.52.

Consider `[O-][s+]1nc(O)cc1-c1ccc(OCc2cccc(Oc3ccccc3)c2)cc1` (centres unmarked) [Example 2, 5-(4-((3-phenoxyphenyl)methoxy)phenyl)isothiazol-3-ol 1-oxide], for which the pEC50 was 5.52 to 6.52.

Take `Cc1cc(OCCC(C)(C)O)cc(C)c1-c1cccc(COc2ccc(-c3cc(O)n[s+]3[O-])cc2)c1C` (centres unmarked) [Example 13, 5-(4-((3-(2,6-dimethyl-4-(3-hydroxy-3-methylbutoxy)phenyl)-2-methylphenyl)methoxy)phenyl)isothiazol-3-ol 1-oxide]: the pEC50 is > 6.52.

Regarding `[O-][s+]1nc(O)cc1-c1ccc(OC2CCc3c(OC4CCCCC4)cccc32)cc1` (centres unmarked) [Example 131, 5-[4-[(4-cyclohexyloxy-2,3-dihydro-1H-inden-1-yl)oxy]phenyl]isothiazol-3-ol 1-oxide(A)], the negative logarithm of the EC50 (pEC50) was > 6.52.

Regarding `Cc1nc(OCCC(C)(C)O)ccc1-c1cccc2c1CC[C@H]2Oc1ccc(-c2cc(O)n[s+]2[O-])cc1` (single isomer, unassigned) [Example 135], the negative-log EC50 (pEC50) is > 6.52.

As for `[O-][s+]1nc(O)cc1-c1ccc(OC2CCc3c2cccc3C(F)(F)F)cc1` (centres unmarked) [Example 69, 5-(4-(4-trifluoromethyl-2,3-dihydro-1H-inden-1-yloxy)phenyl)isothiazol-3-ol 1-oxide(A)], the pEC50 was > 6.52.

`Cc1cccc(C)c1-c1cccc(COc2ccc(-c3cc(O)n[s+]3[O-])cc2)c1` (centres unmarked) [Example 8, 5-(4-((3-(2,6-dimethylphenyl)phenyl)methoxy)phenyl)isothiazol-3-ol 1-oxide]: the pEC50 is > 6.52.

For the compound `Cc1cc(OC2CCS(=O)(=O)CC2)cc(C)c1-c1cccc(COc2ccc(-c3cc(O)n[s+]3[O-])cc2)c1C` (centres unmarked) [Example 29, 5-(4-((3-(2,6-dimethyl-4-((1,1-dioxidetetrahydro-2H-thiopyran-4-yl)oxy)phenyl)-2-methylphenyl)methoxy)phenyl)isothiazol-3-ol 1-oxide(A)], the pEC50 is > 6.52.

As for `Cc1cc(OCCCS(C)(=O)=O)cc(C)c1-c1cccc2c1CC[C@H]2Oc1ccc(-c2cc(O)n[s+]2[O-])cc1` (single isomer, unassigned) [Example 138], the pEC50 is > 6.52.

For `Cc1cc(OC2CCS(=O)(=O)CC2)cc(C)c1-c1cccc(COc2ccc(-c3cc(O)n[s+]3[O-])cc2)c1` (centres unmarked) [Example 28, 5-(4-((3-(2,6-dimethyl-4-((1,1-dioxidetetrahydro-2H-thiopyran-4-yl)oxy)phenyl)phenyl)methoxy)phenyl)isothiazol-3-ol 1-oxide(A)], the pEC50 is > 6.52.

On to `C[C@@H](Oc1ccc(-c2cc(O)n[s+]2[O-])cc1)c1cccc(Br)c1` (stereo partly drawn) [Example 88, 5-[4-[(1R)-1-(3-bromophenyl)ethoxy]phenyl]isothiazol-3-ol 1-oxide(A)], for which the pEC50 was 5.52 to 6.52.

As to `[O-][s+]1nc(O)cc1-c1ccc(O[C@@H]2CCc3c(-c4cccnc4)cccc32)cc1` (single isomer, unassigned) [Example 111], the negative-log EC50 (pEC50) was > 6.52.

In the case of `Cc1cc(OCCCS(C)(=O)=O)nc(C)c1-c1cccc(COc2ccc(-c3cc(O)n[s+]3[O-])cc2)c1` (centres unmarked) [Example 24, 5-(4-((3-(2,4-dimethyl-6-(3-(methylsulfonyl)propoxy)pyridin-3-yl)phenyl)methoxy)phenyl)isothiazol-3-ol 1-oxide(A)], the pEC50 is > 6.52.

Take `Cc1cc(OCCCO)cc(C)c1-c1cccc(COc2ccc(-c3cc(O)n[s+]3[O-])cc2)c1` (centres unmarked) [Example 47, 5-(4-((3-(2,6-dimethyl-4-(3-hydroxypropoxy)phenyl)phenyl)methoxy)phenyl)isothiazol-3-ol 1-oxide(A)]: the pEC50 is > 6.52.

As for `CC(=O)NCCCOc1ccc(-c2cccc(COc3ccc(-c4cc(O)n[s+]4[O-])cc3)c2C)c(C)n1` (centres unmarked) [Example 71, N-[3-[5-[3-[[4-(3-hydroxy-1-oxo-isothiazol-5-yl)phenoxy]methyl]-2-methylphenyl]-6-methylpyridin-2-yl]oxypropyl]acetamide(A)], the negative logarithm of the EC50 (pEC50) is 5.52 to 6.52.

As for `Cc1cc(OCCCO)nc(C)c1-c1cccc(COc2ccc(-c3cc(O)n[s+]3[O-])cc2)c1` (centres unmarked) [Example 49, 5-(4-((3-(2,4-dimethyl-6-(3-hydroxypropoxy)pyridin-3-yl)phenyl)methoxy)phenyl)isothiazol-3-ol 1-oxide(A)], the negative-log EC50 (pEC50) was > 6.52.

With `Cc1cc(OCC2(C)COC2)c(F)c(C)c1-c1cccc(COc2ccc(-c3cc(O)n[s+]3[O-])cc2)c1` (centres unmarked) [Example 43], the negative logarithm of the EC50 (pEC50) is > 6.52.

For the compound `COc1cc(Oc2cccc3c2CCC3Oc2ccc(-c3cc(O)n[s+]3[O-])cc2)ccn1` (centres unmarked) [Example 126, 5-[4-[[4-(2-methoxypyridin-4-yl)oxy-2,3-dihydro-1H-inden-1-yl]oxy]phenyl]isothiazol-3-ol 1-oxide(A)], the negative logarithm of the EC50 (pEC50) was > 6.52.

`[O-][s+]1nc(O)cc1-c1ccc(OC2COc3c2cccc3C(F)(F)F)cc1` (centres unmarked) [Example 80, 1-oxo-5-[4-[[7-(trifluoromethyl)-2,3-dihydro-1-benzofuran-3-yl]oxy]phenyl]-1,2-thiazol-3-ol (A)]: the negative-log EC50 (pEC50) is > 6.52.

Turning to `[O-][s+]1nc(O)cc1-c1ccc(OCc2cccc(Cl)c2Cl)cc1` (centres unmarked) [Example 86, 5-[4-[(2,3-dichlorophenyl)methoxy]phenyl]isothiazol-3-ol 1-oxide(A)], the negative-log EC50 (pEC50) is > 6.52.

For `Cc1cc(OCC[C@@H](C)O)cc(C)c1-c1cccc(COc2ccc(-c3cc(O)n[s+]3[O-])cc2)c1` (stereo partly drawn) [Example 63, 5-(4-((3-(2,6-dimethyl-4-((3R)-3-hydroxybutoxy)phenyl)phenyl)methoxy)phenyl)isothiazol-3-ol 1-oxide(A)], the pEC50 is > 6.52.

As to `[O-][s+]1nc(O)cc1-c1ccc(O[C@@H]2CCc3c(-c4cccnc4C(F)(F)F)cccc32)cc1` (single isomer, unassigned) [Example 117], the pEC50 is 5.52 to 6.52.

Consider `CC1(C)CCC(C)(C)c2cc(COc3ccc(-c4cc(O)n[s+]4[O-])cc3)ccc21` (centres unmarked) [Example 85, 5-[4-[(5,5,8,8-tetramethyl-6,7-dihydronaphthalen-2-yl)methoxy]phenyl]isothiazol-3-ol 1-oxide(A)], for which the negative-log EC50 (pEC50) was > 6.52.

Turning to `[O-][s+]1nc(O)cc1-c1ccc(O[C@@H]2CCc3c(Br)cccc32)cc1` (stereo partly drawn) [Example 66, 5-(4-((1R)-4-bromo-2,3-dihydro-1H-inden-1-yloxy)phenyl)isothiazol-3-ol 1-oxide(A)], the pEC50 was > 6.52.

In the case of `Cc1cc(OCCCS(C)(=O)=O)c(F)c(C)c1-c1cccc(COc2ccc(-c3cc(O)n[s+]3[O-])cc2)c1` (centres unmarked) [Example 27, 5-(4-((3-(2,6-dimethyl-3-fluoro-4-(3-(methylsulfonyl)propoxy)phenyl)phenyl)methoxy)phenyl)isothiazol-3-ol 1-oxide(A)], the pEC50 was > 6.52.

Consider `[O-][s+]1nc(O)cc1-c1ccc(O[C@@H]2CCc3c(C4=CCOCC4)cccc32)cc1` (stereo partly drawn) [Example 121, 5-[4-[[(1R)-4-(3,6-dihydro-2H-pyran-4-yl)-2,3-dihydro-1H-inden-1-yl]oxy]phenyl]isothiazol-3-ol 1-oxide(A)], for which the pEC50 was 5.52 to 6.52.

Consider `[O-][s+]1nc(O)cc1-c1ccc(OCc2cccc3c2OCC3)cc1` (single isomer, unassigned) [Example 95, 5-[4-(2,3-dihydro-1-benzofuran-7-ylmethoxy)phenyl]isothiazol-3-ol 1-oxide(A)], for which the pEC50 was 5.52 to 6.52.

Take `[O-][s+]1nc(O)cc1-c1ccc(O[C@H]2CCc3c(Br)cccc32)cc1` (stereo partly drawn) [Example 67, 5-(4-((1S)-4-bromo-2,3-dihydro-1H-inden-1-yloxy)phenyl)isothiazol-3-ol 1-oxide(A)]: the pEC50 was 5.52 to 6.52.

On to `[O-][s+]1nc(O)cc1-c1ccc(OCCc2cccc(Oc3ccccc3)c2)cc1` (centres unmarked) [Example 106, 5-[4-[2-(3-phenoxyphenyl)ethoxy]phenyl]isothiazol-3-ol 1-oxide], for which the negative logarithm of the EC50 (pEC50) was 5.52 to 6.52.

`[O-][s+]1nc(O)cc1-c1ccc(OC2CCc3cc(Cl)ccc32)cc1` (centres unmarked) [Example 6, 5-(4-(5-chloro-2,3-dihydro-1H-inden-1-yloxy)phenyl)isothiazol-3-ol 1-oxide]: the pEC50 is 5.52 to 6.52.
